The text below walks through data of ChEMBL document CHEMBL1143015, “Hyrtinadine A, a bis-indole alkaloid from a marine sponge” (J Nat Prod, 2007).

The IC50 is the midpoint of a concentration-inhibition curve. A low value points to greater potency.

In one test the test system is L1210. The test can be described thus: Cytotoxicity against mouse L1210 cells. The format is cell-based.
In another test the test system is KB. Put plainly: Cytotoxicity against human KB cells. The format is cell-based.

Each structure is given as a SMILES string. Converted amounts (≈) assume the structure as drawn.

Regarding `Oc1ccc2[nH]cc(-c3cnc(-c4c[nH]c5ccc(O)cc45)nc3)c2c1` [HYRTINADINE A], the IC50 in the test on L1210 stood at 1 µg/mL (≈ 2.92 µM); in the test with KB, 3 µg/mL (≈ 8.76 µM).
